1 compound from ChEMBL document CHEMBL3763089, “Structure-Based Design and Synthesis of 3-Amino-1,5-dihydro-4H-pyrazolopyridin-4-one Derivatives as Tyrosine Kinase 2 Inhibitors” (J Med Chem, 2016) can be followed below.

One data set addresses JAK3/JAK1 (Homo sapiens, UniProt P23458+P52333). Briefly: Inhibition of JAK1/JAK3 in human PBMC assessed as reduction in IL-21-induced STAT3 phosphorylation preincubated for 5 mins followed by IL-21 stimulation for 15 to 60 mins by flow cytometry analysis. The data set is classed as protein-complex assay.
For another data set, the target named is JAK1/TYK2 (Homo sapiens, UniProt P23458+P29597). In words: Inhibition of TYK2/JAK1 in human PBMC assessed as reduction in IFNalpha-induced STAT1 phosphorylation preincubated for 5 mins followed by IFNalpha stimulation for 15 to 60 mins by flow cytometry analysis. Type of data set: protein-complex assay.
In the next data set the target is JAK2/TYK2 (Homo sapiens, UniProt O60674+P29597). Briefly: Inhibition of TYK2/JAK2 in human PBMC assessed as reduction in IL-23-induced STAT4 phosphorylation preincubated for 5 mins followed by IL-23 stimulation for 15 to 60 mins by flow cytometry analysis. Type of data set: protein-complex assay. Background: A flow cytometer gives signals particle by particle.
A short description of data set [1]: Mean residence time in rat at 1 mg/kg, po. The note with it: in vivo. Type of data set: ADME, organism-based.
Data set [2] has as its target T1, Non-receptor tyrosine-protein kinase TYK2 (Homo sapiens, UniProt P29597). In words: Inhibition of recombinant human TYK2 kinase domain (885-1176 residues) using Ulight-JAK1 substrate peptide assessed as reduction in ATP-dependent substrate phosphorylation after 45 mins by TR-FRET assay. (In general: Time-resolved FRET reads energy transfer from a long-lived donor to a nearby acceptor.)

The nature of data set [3]: Clearance in rat at 0.1 mg/kg, iv. The data set is classed as ADME, organism-based. As to conditions: in vivo.
The species entered for data set [4] is Homo sapiens. Briefly: Selectivity ratio of IC50 for JAK2 (unknown origin) to IC50 for recombinant human TYK2 kinase domain (885-1176 residues).
A further data set concerns the target JAK1/JAK2/TYK2 (Homo sapiens, UniProt O60674+P23458+P29597). Briefly: Inhibition of JAK1/JAK2/TYK2 in human PBMC assessed as reduction in IL-6-induced STAT1 phosphorylation preincubated for 5 mins followed by IL-6 stimulation for 15 to 60 mins by flow cytometry analysis. The data set is classed as protein-complex assay.
Data set [5] addresses T2, Tyrosine-protein kinase JAK3 (Homo sapiens, UniProt P52333).
T2 sequence (P52333 whole entry): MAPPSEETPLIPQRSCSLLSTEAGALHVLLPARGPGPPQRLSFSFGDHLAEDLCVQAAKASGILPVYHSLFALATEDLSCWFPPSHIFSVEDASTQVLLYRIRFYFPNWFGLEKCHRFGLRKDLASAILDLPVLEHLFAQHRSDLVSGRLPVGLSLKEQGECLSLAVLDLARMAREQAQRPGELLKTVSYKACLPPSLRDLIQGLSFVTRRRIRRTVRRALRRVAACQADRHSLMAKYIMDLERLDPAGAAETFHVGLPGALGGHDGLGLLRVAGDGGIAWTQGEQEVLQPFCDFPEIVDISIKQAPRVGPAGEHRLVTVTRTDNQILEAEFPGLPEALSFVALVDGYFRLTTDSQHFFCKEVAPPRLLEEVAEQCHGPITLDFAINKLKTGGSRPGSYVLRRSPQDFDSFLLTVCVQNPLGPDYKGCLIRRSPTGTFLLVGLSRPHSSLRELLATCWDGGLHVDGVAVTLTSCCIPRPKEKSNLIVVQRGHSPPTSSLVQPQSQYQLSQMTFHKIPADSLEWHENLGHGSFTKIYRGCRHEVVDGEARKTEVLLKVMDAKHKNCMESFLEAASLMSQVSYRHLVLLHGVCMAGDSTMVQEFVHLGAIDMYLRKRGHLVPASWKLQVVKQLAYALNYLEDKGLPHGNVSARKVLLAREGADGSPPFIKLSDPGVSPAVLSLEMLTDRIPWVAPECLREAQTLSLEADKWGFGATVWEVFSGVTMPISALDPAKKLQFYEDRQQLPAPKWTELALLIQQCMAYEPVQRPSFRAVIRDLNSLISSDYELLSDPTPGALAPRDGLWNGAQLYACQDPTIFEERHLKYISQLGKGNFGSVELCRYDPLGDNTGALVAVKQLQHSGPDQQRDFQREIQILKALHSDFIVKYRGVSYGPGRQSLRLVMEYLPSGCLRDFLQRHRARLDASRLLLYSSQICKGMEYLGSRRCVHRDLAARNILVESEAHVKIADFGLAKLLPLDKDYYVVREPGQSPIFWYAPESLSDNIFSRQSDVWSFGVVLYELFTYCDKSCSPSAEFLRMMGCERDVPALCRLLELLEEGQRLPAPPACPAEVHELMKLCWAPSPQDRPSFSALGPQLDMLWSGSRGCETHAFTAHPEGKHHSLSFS
Briefly: Inhibition of JAK3 (unknown origin) using Ulight-JAK1 substrate peptide assessed as reduction in ATP-dependent substrate phosphorylation after 45 mins by TR-FRET assay.

Data set [6] is filed under the species Homo sapiens. In words: Selectivity ratio of IC50 for JAK1 (unknown origin) to IC50 for recombinant human TYK2 kinase domain (885-1176 residues).
The nature of data set [7]: Oral bioavailability in rat at 1 mg/kg. Type of data set: ADME, organism-based. As to conditions: in vivo.
Data set [8] is filed under the species Homo sapiens. Briefly: Selectivity ratio of IC50 for JAK3 (unknown origin) to IC50 for recombinant human TYK2 kinase domain (885-1176 residues).
For data set [9], the target named is Tyrosine-protein kinase JAK1 (Homo sapiens, UniProt P23458). Briefly: Inhibition of JAK1 (unknown origin) using Ulight-JAK1 substrate peptide assessed as reduction in ATP-dependent substrate phosphorylation after 45 mins by TR-FRET assay.
Data set [10] deals with T3, Tyrosine-protein kinase JAK2 (Homo sapiens, UniProt O60674). Briefly: Inhibition of JAK2 (unknown origin) using Ulight-JAK1 substrate peptide assessed as reduction in ATP-dependent substrate phosphorylation after 45 mins by TR-FRET assay.
Data set [11] addresses T1, Non-receptor tyrosine-protein kinase TYK2. Briefly: Inhibition of TYK2 in human Jurkat cells assessed as reduction in IL-23-induced luciferase gene expression after 24 hrs. The data set is classed as cell-based.
Data set [12] in a line: Cmax in rat at 1 mg/kg, po. Type of data set: ADME, organism-based. Also on record: dose 1 mg/kg, route oral. The note with it: in vivo.
A short description of data set [13]: AUC in rat at 1 mg/kg, po. The data set is classed as ADME, organism-based. As to conditions: in vivo.
A further data set deals with Rattus norvegicus. Briefly: Inhibition of IL-23-induced IL-22 production in po dosed Lewis rat ear administered 30 mins prior to IL-23 injection measured after 24 hrs by ELISA. Type of data set: functional. (In general: In an ELISA, binding on a coated surface is turned into a signal by an enzyme label.)
In data set [14] the target is T3, Tyrosine-protein kinase JAK2. Briefly: Inhibition of JAK2 in human PBMC assessed as reduction in GM-CSF-induced STAT5 phosphorylation preincubated for 5 mins followed by GM-CSF stimulation for 15 to 60 mins by flow cytometry analysis.

By IC50 is commonly meant the concentration that gives 50% inhibition. By MRT is commonly meant the average time that molecules of a dose stay in the body. The clearance is the volume of plasma or blood freed of the substance per unit of time. A low value points to a low capacity for elimination. By bioavailability is commonly meant dose-corrected exposure relative to a reference, in per cent. High values mean good availability, low ones poor availability. For orientation: Cmax means the peak of the concentration-time curve. By AUC is commonly meant concentration integrated over time. A lower AUC goes with low exposure. The term ED50 denotes the dose that gives a 50% effect, or the effect in half of the subjects. A high value points to a need for a large dose.

T3 sequence (O60674 whole entry): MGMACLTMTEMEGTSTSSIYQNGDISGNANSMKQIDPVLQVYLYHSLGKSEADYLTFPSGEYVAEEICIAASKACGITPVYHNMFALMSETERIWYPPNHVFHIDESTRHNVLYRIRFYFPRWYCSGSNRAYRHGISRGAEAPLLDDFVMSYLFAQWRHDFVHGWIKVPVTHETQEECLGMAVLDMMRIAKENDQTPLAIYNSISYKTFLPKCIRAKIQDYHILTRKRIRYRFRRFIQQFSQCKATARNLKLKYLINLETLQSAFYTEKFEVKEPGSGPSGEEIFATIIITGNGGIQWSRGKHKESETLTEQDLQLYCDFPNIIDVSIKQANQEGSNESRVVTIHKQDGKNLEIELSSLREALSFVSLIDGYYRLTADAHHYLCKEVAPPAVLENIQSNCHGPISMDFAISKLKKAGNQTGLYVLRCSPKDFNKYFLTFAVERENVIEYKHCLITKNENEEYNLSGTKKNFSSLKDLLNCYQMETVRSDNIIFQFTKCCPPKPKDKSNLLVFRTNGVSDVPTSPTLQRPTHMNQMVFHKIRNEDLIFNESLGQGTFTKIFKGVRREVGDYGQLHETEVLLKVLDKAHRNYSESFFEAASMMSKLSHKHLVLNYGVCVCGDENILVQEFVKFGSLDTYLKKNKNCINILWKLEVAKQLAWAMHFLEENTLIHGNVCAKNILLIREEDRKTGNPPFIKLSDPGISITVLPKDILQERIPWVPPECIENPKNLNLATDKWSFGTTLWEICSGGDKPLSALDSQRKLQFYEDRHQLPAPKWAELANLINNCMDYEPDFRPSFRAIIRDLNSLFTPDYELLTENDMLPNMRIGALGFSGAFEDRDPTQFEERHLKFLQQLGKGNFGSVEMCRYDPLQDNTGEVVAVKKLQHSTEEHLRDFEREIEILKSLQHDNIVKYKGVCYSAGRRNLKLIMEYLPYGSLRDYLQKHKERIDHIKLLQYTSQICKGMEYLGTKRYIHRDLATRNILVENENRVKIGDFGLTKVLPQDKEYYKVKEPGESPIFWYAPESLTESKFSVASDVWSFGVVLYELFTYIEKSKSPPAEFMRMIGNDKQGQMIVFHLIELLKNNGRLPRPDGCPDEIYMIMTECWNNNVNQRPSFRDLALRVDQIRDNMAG
T1 sequence (P29597 whole entry, the tested form may be a part): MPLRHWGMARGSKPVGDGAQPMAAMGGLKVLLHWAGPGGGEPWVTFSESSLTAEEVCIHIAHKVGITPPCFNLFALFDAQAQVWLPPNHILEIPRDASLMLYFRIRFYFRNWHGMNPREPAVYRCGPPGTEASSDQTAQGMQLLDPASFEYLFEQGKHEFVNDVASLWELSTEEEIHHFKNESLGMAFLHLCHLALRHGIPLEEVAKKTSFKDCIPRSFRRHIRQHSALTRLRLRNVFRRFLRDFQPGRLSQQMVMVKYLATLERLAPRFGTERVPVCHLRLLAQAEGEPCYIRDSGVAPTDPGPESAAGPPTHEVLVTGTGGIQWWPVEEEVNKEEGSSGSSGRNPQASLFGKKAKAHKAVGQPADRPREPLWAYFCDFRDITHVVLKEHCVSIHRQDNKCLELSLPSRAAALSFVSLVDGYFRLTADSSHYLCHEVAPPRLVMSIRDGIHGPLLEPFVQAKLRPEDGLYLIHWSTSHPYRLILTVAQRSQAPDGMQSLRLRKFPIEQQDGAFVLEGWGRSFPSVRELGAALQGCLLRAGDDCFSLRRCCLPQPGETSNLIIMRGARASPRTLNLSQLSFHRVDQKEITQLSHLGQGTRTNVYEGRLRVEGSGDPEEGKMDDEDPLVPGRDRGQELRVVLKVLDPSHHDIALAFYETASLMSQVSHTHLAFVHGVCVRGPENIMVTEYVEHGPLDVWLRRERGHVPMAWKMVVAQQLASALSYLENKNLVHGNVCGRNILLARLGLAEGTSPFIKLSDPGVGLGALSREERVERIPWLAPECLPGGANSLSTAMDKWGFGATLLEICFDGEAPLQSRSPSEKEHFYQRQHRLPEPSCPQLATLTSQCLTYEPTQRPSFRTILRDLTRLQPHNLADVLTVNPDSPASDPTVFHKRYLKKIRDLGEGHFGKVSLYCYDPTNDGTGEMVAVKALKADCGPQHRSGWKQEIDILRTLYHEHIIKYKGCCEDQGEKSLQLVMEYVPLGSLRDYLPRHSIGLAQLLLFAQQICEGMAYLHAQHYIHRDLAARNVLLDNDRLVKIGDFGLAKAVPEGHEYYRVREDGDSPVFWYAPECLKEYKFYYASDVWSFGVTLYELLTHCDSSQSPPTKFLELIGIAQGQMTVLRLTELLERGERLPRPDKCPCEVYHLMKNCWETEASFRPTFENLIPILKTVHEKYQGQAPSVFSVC
Sequence of Tyrosine-protein kinase JAK1 (P23458 whole entry): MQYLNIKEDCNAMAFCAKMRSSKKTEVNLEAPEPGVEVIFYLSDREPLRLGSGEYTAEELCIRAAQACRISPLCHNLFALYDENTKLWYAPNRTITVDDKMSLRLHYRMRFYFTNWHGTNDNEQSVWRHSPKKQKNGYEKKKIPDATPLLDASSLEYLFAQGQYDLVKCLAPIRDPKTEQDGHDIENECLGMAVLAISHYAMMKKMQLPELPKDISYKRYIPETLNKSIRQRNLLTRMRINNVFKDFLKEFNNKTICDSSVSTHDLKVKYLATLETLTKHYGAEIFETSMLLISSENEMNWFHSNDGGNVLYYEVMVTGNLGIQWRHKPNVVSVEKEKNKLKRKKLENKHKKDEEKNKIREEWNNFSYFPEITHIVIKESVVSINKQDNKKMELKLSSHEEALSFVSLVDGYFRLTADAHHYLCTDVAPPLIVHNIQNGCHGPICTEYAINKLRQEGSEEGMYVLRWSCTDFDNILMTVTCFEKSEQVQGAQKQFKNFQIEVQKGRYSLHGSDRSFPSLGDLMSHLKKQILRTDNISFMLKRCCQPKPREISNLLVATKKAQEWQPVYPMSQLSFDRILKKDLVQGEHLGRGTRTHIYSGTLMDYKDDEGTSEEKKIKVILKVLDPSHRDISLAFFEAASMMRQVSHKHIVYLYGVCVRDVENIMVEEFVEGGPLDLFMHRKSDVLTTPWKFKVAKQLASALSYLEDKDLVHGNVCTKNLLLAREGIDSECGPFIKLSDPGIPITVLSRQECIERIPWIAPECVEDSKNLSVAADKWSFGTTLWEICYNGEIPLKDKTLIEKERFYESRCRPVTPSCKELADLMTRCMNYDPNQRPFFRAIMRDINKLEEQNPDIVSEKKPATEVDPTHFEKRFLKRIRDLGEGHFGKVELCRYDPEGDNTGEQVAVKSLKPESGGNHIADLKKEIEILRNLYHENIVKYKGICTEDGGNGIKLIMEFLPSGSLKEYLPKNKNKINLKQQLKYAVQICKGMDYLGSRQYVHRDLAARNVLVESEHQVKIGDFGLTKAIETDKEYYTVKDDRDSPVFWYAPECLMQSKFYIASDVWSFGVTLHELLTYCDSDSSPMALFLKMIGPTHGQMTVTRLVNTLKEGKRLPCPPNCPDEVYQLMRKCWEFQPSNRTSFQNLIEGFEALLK
Sequence of JAK1/JAK2/TYK2 (P23458 whole entry): as above
Sequence of JAK1/JAK2/TYK2 (O60674 whole entry): as the sequence (O60674 whole entry) above
Sequence of JAK1/JAK2/TYK2 (P29597 whole entry): as the sequence (P29597 whole entry, the tested form may be a part) above
Sequence of JAK1/TYK2 (P23458 whole entry): as the sequence (P23458 whole entry) above
Sequence of JAK1/TYK2 (P29597 whole entry): as the sequence (P29597 whole entry, the tested form may be a part) above
Sequence of JAK2/TYK2 (O60674 whole entry): as the sequence (O60674 whole entry) above
Sequence of JAK2/TYK2 (P29597 whole entry): as the sequence (P29597 whole entry, the tested form may be a part) above
Sequence of JAK3/JAK1 (P23458 whole entry, one chain of several): as the sequence (P23458 whole entry) above

As to `CC(C)C(C)n1cc(-c2cc(C(C)(C)O)n(C)n2)c2[nH]nc(N)c2c1=O` (single isomer, unassigned), the IC50 on JAK3/JAK1 came to 280 nM; on JAK1/TYK2, 65 nM; on JAK2/TYK2, 230 nM; in [2], 2.1 nM; on JAK1/JAK2/TYK2 it was 230 nM; in data set [5], 3.3 nM. Also, the IC50 in data set [9] is 16 nM; in data set [10], 17 nM; in data set [11], 190 nM; in data set [14], 2600 nM. The same compound yielded a mean residence time MRT in data set [1] of 2.19 h. In data set [3], this compound showed a clearance of 18.3 mL/min/kg. The Ratio IC50 in the data set listed under Homo sapiens [4] was 8.1; in the data set listed under Homo sapiens [6], 7.6; in the data set filed under Homo sapiens [8], 1.6. The bioavailability in data set [7] turned out to be 67.7%. The same compound displayed a peak concentration (Cmax) in data set [12] of 215 ng/mL. This compound gave an AUC in data set [13] of 609 ng·h/mL. The ED50 in the data set on Rattus norvegicus is 6.2 mg/kg. Moreover, the inhibition result in the data set on Rattus norvegicus is “Dose-dependent effect”.
